# In patent US20260042731A1, “(2,4-DICHLOROPHENOXY)ACETIC ACID ANALOGS” (CORTEVA AGRISCIENCE LLC, priority 2022, published 2026):
# Where two headings read alike, the source gives them in different places.
# What was measured:
# [1] = test system: glyphosate resistant Conyza canadensis (L.) (ERICA), horseweed; assay: Postemergence herbicide evaluation, growth of Conyza canadensis (ERICA); format: in vivo; conditions: for pest or weed control at 280 g/ha / pest or weed control at 560 g/ha: Erigeron canadensis, post-emergence, percent reduction in plant size relative to untreated control, read-out: Ave. ERICA; for Ave. ERICA: percent reduction in plant size vs untreated control
# [2] = test system: Chenopodium album (CHEAL), common lambsquarters; assay: Postemergence herbicide evaluation, growth of Chenopodium album (CHEAL); format: in vivo; conditions: for pest or weed control at 280 g/ha / pest or weed control at 560 g/ha: Chenopodium album, post-emergence, percent reduction in plant size relative to untreated control, read-out: Ave. CHEAL; for Ave. CHEAL: percent reduction in plant size vs untreated control
# [3] = test system: Abutilon theophrasti (ABUTH), velvetleaf; assay: Postemergence herbicide evaluation, growth of Abutilon theophrasti (ABUTH); format: in vivo; conditions: for pest or weed control at 280 g/ha / pest or weed control at 560 g/ha: Abutilon theophrasti, post-emergence, percent reduction in plant size relative to untreated control, read-out: AVE. ABUTH; for AVE. ABUTH: percent reduction in plant size vs untreated control
# [4] = test system: weeds (ABUTH, AMATA, AMBEL, CHEAL, ERICA); assay: Postemergence herbicide evaluation, overall average % weed control across ABUTH, AMATA, AMBEL, CHEAL, ERICA; format: in vivo; conditions: post-emergence, average over the five weeds, read-out: Overall Ave % Weed Control; for pest or weed control at 280 g/ha: 280 g ae/ha; for pest or weed control at 560 g/ha: 560 g ae/ha
# [5] = test system: Glycine max (Enlist E3 traited soybeans, GLXMA)
# [6] = Volatility of compounds measured by thermogravimetric analysis (TGA); format: physicochemical
# [7] = test system: Amaranthus rudis (AMATA), tall water hemp; assay: Postemergence herbicide evaluation, growth of Amaranthus rudis (AMATA); format: in vivo; conditions: for pest or weed control at 280 g/ha / pest or weed control at 560 g/ha: Amaranthus tuberculatus, post-emergence, percent reduction in plant size relative to untreated control, read-out: Ave. AMATA; for Ave. AMATA: percent reduction in plant size vs untreated control
# [8] = test system: Ambrosia artemisiifolia (AMBEL), common ragweed; assay: Postemergence herbicide evaluation, growth of Ambrosia artemisiifolia (AMBEL); format: in vivo; conditions: for pest or weed control at 280 g/ha / pest or weed control at 560 g/ha: Ambrosia artemisiifolia, post-emergence, percent reduction in plant size relative to untreated control, read-out: AVE. AMBEL; for AVE. AMBEL: percent reduction in plant size vs untreated control
# [9] = test system: weeds ABUTH, AMATA, AMBEL, CHEAL, ERICA; assay: Postemergence herbicide evaluation, overall average % weed control across ABUTH, AMATA, AMBEL, CHEAL and ERICA; format: in vivo; conditions: average over five weeds
compound,measurement,setting,value
Cc1ccc(S(=O)(=O)NC(=O)COc2ccc(Cl)cc2Cl)cc1 [Compound D5],pest or weed control at 280 g/ha,"[1]; 168 h, 280 g ae/ha, 7 DAA",63%
same,pest or weed control at 560 g/ha,"[1]; 168 h, 560 g ae/ha, 7 DAA",53%
same,pest or weed control at 280 g/ha,"[1]; 336 h, 280 g ae/ha, 14 DAA",78%
same,pest or weed control at 560 g/ha,"[1]; 336 h, 560 g ae/ha, 14 DAA",75%
same,pest or weed control at 280 g/ha,"[1]; 504 h, 280 g ae/ha, 21 DAA",73%
same,pest or weed control at 560 g/ha,"[1]; 504 h, 560 g ae/ha, 21 DAA",68%
same,pest or weed control at 280 g/ha,"[2]; 168 h, 280 g ae/ha, 7 DAA",65%
same,pest or weed control at 560 g/ha,"[2]; 168 h, 560 g ae/ha, 7 DAA",73%
same,pest or weed control at 280 g/ha,"[2]; 336 h, 280 g ae/ha, 14 DAA",70%
same,pest or weed control at 560 g/ha,"[2]; 336 h, 560 g ae/ha, 14 DAA",73%
same,pest or weed control at 280 g/ha,"[2]; 504 h, 280 g ae/ha, 21 DAA",65%
same,pest or weed control at 560 g/ha,"[2]; 504 h, 560 g ae/ha, 21 DAA",68%
same,pest or weed control at 280 g/ha,"[3]; 168 h, 280 g ae/ha, 7 DAA",30%
same,pest or weed control at 560 g/ha,"[3]; 168 h, 560 g ae/ha, 7 DAA",40%
same,pest or weed control at 280 g/ha,"[3]; 336 h, 280 g ae/ha, 14 DAA",23%
same,pest or weed control at 560 g/ha,"[3]; 336 h, 560 g ae/ha, 14 DAA",35%
same,pest or weed control at 280 g/ha,"[3]; 504 h, 280 g ae/ha, 21 DAA",25%
same,pest or weed control at 560 g/ha,"[3]; 504 h, 560 g ae/ha, 21 DAA",25%
same,pest or weed control at 280 g/ha,"[4]; 168 h, 7 DAA",56%
same,pest or weed control at 560 g/ha,"[4]; 168 h, 7 DAA",61%
same,pest or weed control at 280 g/ha,"[4]; 336 h, 14 DAA",63%
same,pest or weed control at 560 g/ha,"[4]; 336 h, 14 DAA",70%
same,pest or weed control at 280 g/ha,"[4]; 504 h, 21 DAA",59%
same,pest or weed control at 560 g/ha,"[4]; 504 h, 21 DAA",63%
same,AVE. GLXMA,"[5]; 280 g ae/ha, 7 DAA, Enlist E3 soybeans, percent reduction in plant size relative to untreated control",4%
same,AVE. GLXMA,"[5]; 280 g ae/ha, 14 DAA, Enlist E3 soybeans, percent reduction in plant size relative to untreated control",2%
same,AVE. GLXMA,"[5]; 280 g ae/ha, 21 DAA, Enlist E3 soybeans, percent reduction in plant size relative to untreated control",3%
same,AVE. GLXMA,"[5]; 560 g ae/ha, 7 DAA, Enlist E3 soybeans, percent reduction in plant size relative to untreated control",9%
same,AVE. GLXMA,"[5]; 560 g ae/ha, 14 DAA, Enlist E3 soybeans, percent reduction in plant size relative to untreated control",5%
same,AVE. GLXMA,"[5]; 560 g ae/ha, 21 DAA, Enlist E3 soybeans, percent reduction in plant size relative to untreated control",5%
same,"TGA Data (rate of weight loss, volatility)",[6],0.02 µg/min
same,pest or weed control at 280 g/ha,"[7]; 168 h, 280 g ae/ha, 7 DAA",73%
same,pest or weed control at 560 g/ha,"[7]; 168 h, 560 g ae/ha, 7 DAA",73%
same,pest or weed control at 280 g/ha,"[7]; 336 h, 280 g ae/ha, 14 DAA",78%
same,pest or weed control at 560 g/ha,"[7]; 336 h, 560 g ae/ha, 14 DAA",75%
same,pest or weed control at 280 g/ha,"[7]; 504 h, 280 g ae/ha, 21 DAA",75%
same,pest or weed control at 560 g/ha,"[7]; 504 h, 560 g ae/ha, 21 DAA",73%
same,pest or weed control at 280 g/ha,"[8]; 168 h, 280 g ae/ha, 7 DAA",48%
same,pest or weed control at 560 g/ha,"[8]; 168 h, 560 g ae/ha, 7 DAA",65%
same,pest or weed control at 280 g/ha,"[8]; 336 h, 280 g ae/ha, 14 DAA",68%
same,pest or weed control at 560 g/ha,"[8]; 336 h, 560 g ae/ha, 14 DAA",90%
same,pest or weed control at 280 g/ha,"[8]; 504 h, 280 g ae/ha, 21 DAA",58%
same,pest or weed control at 560 g/ha,"[8]; 504 h, 560 g ae/ha, 21 DAA",85%
"CC(C)CCCCCOC(=O)COc1ccc(Cl)cc1Cl [Isooctyl Ester, 2,4-D-isoctyl, reference compound]",Ave. ERICA,"[1]; 280 g ae/ha, 7 DAA",85%
same,Ave. ERICA,"[1]; 280 g ae/ha, 14 DAA",100%
same,Ave. ERICA,"[1]; 280 g ae/ha, 21 DAA",98%
same,Ave. ERICA,"[1]; 560 g ae/ha, 7 DAA",85%
same,Ave. ERICA,"[1]; 560 g ae/ha, 14 DAA",98.5%
same,Ave. ERICA,"[1]; 560 g ae/ha, 21 DAA",99.5%
same,Ave. CHEAL,"[2]; 280 g ae/ha, 7 DAA",82.5%
same,Ave. CHEAL,"[2]; 280 g ae/ha, 14 DAA",95%
same,Ave. CHEAL,"[2]; 280 g ae/ha, 21 DAA",96%
same,Ave. CHEAL,"[2]; 560 g ae/ha, 7 DAA",77.5%
same,Ave. CHEAL,"[2]; 560 g ae/ha, 14 DAA",96.5%
same,Ave. CHEAL,"[2]; 560 g ae/ha, 21 DAA",93.5%
same,Overall Ave % Weed Control,"[9]; 280 g ae/ha, 7 DAA",80.5%
same,Overall Ave % Weed Control,"[9]; 280 g ae/ha, 14 DAA",89%
same,Overall Ave % Weed Control,"[9]; 280 g ae/ha, 21 DAA",91.3%
same,Overall Ave % Weed Control,"[9]; 560 g ae/ha, 7 DAA",78%
same,Overall Ave % Weed Control,"[9]; 560 g ae/ha, 14 DAA",94.2%
same,Overall Ave % Weed Control,"[9]; 560 g ae/ha, 21 DAA",95.6%
same,AVE. ABUTH,"[3]; 280 g ae/ha, 7 DAA",72.5%
same,AVE. ABUTH,"[3]; 280 g ae/ha, 14 DAA",80%
same,AVE. ABUTH,"[3]; 280 g ae/ha, 21 DAA",97.5%
same,AVE. ABUTH,"[3]; 560 g ae/ha, 7 DAA",77.5%
same,AVE. ABUTH,"[3]; 560 g ae/ha, 14 DAA",98.5%
same,AVE. ABUTH,"[3]; 560 g ae/ha, 21 DAA",100%
same,AVE. GLXMA,"[5]; 280 g ae/ha, 7 DAA, Enlist E3 soybean, percent reduction in plant size vs untreated control",0%
same,AVE. GLXMA,"[5]; 280 g ae/ha, 14 DAA, Enlist E3 soybean, percent reduction in plant size vs untreated control",0%
same,AVE. GLXMA,"[5]; 280 g ae/ha, 21 DAA, Enlist E3 soybean, percent reduction in plant size vs untreated control",0%
same,AVE. GLXMA,"[5]; 560 g ae/ha, 7 DAA, Enlist E3 soybean, percent reduction in plant size vs untreated control",0%
same,AVE. GLXMA,"[5]; 560 g ae/ha, 14 DAA, Enlist E3 soybean, percent reduction in plant size vs untreated control",0%
same,AVE. GLXMA,"[5]; 560 g ae/ha, 21 DAA, Enlist E3 soybean, percent reduction in plant size vs untreated control",0%
same,Ave. AMATA,"[7]; 280 g ae/ha, 7 DAA",80%
same,Ave. AMATA,"[7]; 280 g ae/ha, 14 DAA",92.5%
same,Ave. AMATA,"[7]; 280 g ae/ha, 21 DAA",65%
same,Ave. AMATA,"[7]; 560 g ae/ha, 7 DAA",85%
same,Ave. AMATA,"[7]; 560 g ae/ha, 14 DAA",87.5%
same,Ave. AMATA,"[7]; 560 g ae/ha, 21 DAA",85%
same,AVE. AMBEL,"[8]; 280 g ae/ha, 7 DAA",82.5%
same,AVE. AMBEL,"[8]; 280 g ae/ha, 14 DAA",77.5%
same,AVE. AMBEL,"[8]; 280 g ae/ha, 21 DAA",100%
same,AVE. AMBEL,"[8]; 560 g ae/ha, 7 DAA",65%
same,AVE. AMBEL,"[8]; 560 g ae/ha, 14 DAA",90%
same,AVE. AMBEL,"[8]; 560 g ae/ha, 21 DAA",100%
